The target of assay [1] is T1, furin (endogenous protease) in U20S cells (Homo sapiens, UniProt P09958).
T1 construct: the endogenous protease cleaves GFP; endogenous in cells; host or cells: U2OS cells transduced with a BacMam reporter
The experiment in a line: Furin cell-based assay (image-based, Golgi-targeted GFP with BMP10 furin/PCSK cleavage site).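 Note: Read-out is mean GFP fluorescence of Golgi puncta per cell by high-content imaging, retained when furin inhibited, over an eleven-point 0.00017–10 µM series, four-parameter fit.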 The note with it: 24-hour incubation, read-out: furin golgi cell pXC50 (converted).

For assay [2], the target named is T2, Furin (108-574-Tev-Flag-His) enzyme (Homo sapiens, UniProt P09958).
T2 construct: Furin (108-574-Tev-Flag-His) enzyme was expressed and purified from CHO cells; TEV cleavage site (C); FLAG (C); His (C); made in house; host or cells: CHO cells
T2 sequence (P09958 108-574): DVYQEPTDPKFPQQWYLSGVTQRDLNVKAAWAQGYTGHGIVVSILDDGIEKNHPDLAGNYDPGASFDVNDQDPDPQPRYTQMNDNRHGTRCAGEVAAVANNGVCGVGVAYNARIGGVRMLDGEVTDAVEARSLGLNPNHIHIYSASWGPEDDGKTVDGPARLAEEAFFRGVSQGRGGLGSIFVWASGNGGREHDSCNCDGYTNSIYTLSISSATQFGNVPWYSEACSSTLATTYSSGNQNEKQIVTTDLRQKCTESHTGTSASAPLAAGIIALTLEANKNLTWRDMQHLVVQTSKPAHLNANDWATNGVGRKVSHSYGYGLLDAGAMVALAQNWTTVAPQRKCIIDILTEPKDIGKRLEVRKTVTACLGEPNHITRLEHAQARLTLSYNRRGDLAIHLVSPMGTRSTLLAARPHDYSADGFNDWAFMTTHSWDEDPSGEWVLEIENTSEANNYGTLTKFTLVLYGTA
Nature of the assay: Furin enzyme assay. In kind it is biochemical. The note with it: for IC50: read-out: furin enzyme pIC50 (converted). The gist of the method: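 Compounds ran as 11-point threefold dilutions (0.00017–10 μM final) against 40 pM furin, purified from CHO cells, for 2 h at room temperature. Buffer: 100 mM HEPES pH7.5 with 1 mM CaCl2 and 0.005% Triton X-100. Envision readout. Four-parameter curve gives pXC50.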

Structures can show the parent of a compound that is named as a salt.

T1 sequence (P09958 108-794): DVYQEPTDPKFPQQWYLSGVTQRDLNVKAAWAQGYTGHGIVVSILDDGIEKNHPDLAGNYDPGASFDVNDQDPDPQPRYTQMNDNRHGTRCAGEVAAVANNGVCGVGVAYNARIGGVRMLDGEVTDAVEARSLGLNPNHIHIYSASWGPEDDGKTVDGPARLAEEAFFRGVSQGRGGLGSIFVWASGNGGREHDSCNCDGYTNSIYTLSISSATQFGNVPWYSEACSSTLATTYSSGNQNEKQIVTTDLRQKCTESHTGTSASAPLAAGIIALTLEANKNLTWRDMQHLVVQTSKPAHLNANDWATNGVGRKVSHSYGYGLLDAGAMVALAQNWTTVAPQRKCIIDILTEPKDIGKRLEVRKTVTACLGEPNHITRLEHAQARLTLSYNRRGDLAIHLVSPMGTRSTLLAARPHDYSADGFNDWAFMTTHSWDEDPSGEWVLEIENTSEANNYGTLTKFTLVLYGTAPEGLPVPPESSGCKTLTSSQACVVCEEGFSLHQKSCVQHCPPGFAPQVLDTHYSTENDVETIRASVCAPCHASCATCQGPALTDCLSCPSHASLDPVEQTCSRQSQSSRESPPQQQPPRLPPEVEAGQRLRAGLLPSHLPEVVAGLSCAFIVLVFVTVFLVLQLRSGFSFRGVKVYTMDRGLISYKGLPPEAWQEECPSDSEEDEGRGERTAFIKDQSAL

As to `COC(=O)NCC1CCN(Cc2cc(Oc3cnc(N4CC5CCC(C4)N5CCC(=O)O)nc3)nc(-c3cc(Cl)cc(Cl)c3)c2)CC1` [Example 56, 3-(3-(5-((6-(3,5-dichlorophenyl)-4-((4-(((methoxycarbonyl)amino)methyl)piperidin-1-yl)methyl)pyridin-2-yl)oxy)pyrimidin-2-yl)-3,8-diazabicyclo[3.2.1]octan-8-yl)propanoic acid], the EC50 in assay [1] is 5.01 nM. Besides, in assay [2], the IC50 is 0.0316 nM.
For `CC(CCN1CCN(c2ncc(Oc3cc(CN4CCC(CCO)CC4)cc(-c4cc(Cl)cc(Cl)c4)n3)cn2)CC1)C(=O)O` (centres unmarked) [Example 57, 4-(4-(5-((6-(3,5-dichlorophenyl)-4-((4-(2-hydroxyethyl)piperidin-1-yl)methyl)pyridin-2-yl)oxy)pyrimidin-2-yl)piperazin-1-yl)-2-methylbutanoic acid], the EC50 in assay [1] is 10 nM. In addition, the “furin enzyme pIC50” value in assay [2] is given as 10.3.
On the same counts, the results for `O=C(O)CCN1CCN(c2ccc(Oc3cc(CN4CCC(CNC(=O)C5CC5)CC4)cc(-c4cc(Cl)cc(Cl)c4)n3)cn2)CC1` [Example 58, 3-(4-(5-((4-((4-(cyclopropanecarboxamidomethyl)piperidin-1-yl)methyl)-6-(3,5-dichlorophenyl)pyridin-2-yl)oxy)pyridin-2-yl)piperazin-1-yl)propanoic acid] are 15.8 nM and 9.2.
The like results for `CCC(=O)NCC1CCN(Cc2cc(Oc3cnc(N4CCN(CCC(C)C(=O)O)CC4)nc3)nc(-c3cc(Cl)cc(Cl)c3)c2)CC1` (centres unmarked) [Example 59, 4-(4-(5-((6-(3,5-dichlorophenyl)-4-((4-(propionamidomethyl)piperidin-1-yl)methyl)pyridin-2-yl)oxy)pyrimidin-2-yl)piperazin-1-yl)-2-methylbutanoic acid] were, in that order, 6.31 nM and 8.9.
Take `CC(O)CCN1CCN(c2ncc(Oc3cc(CN4CCC(F)CC4)cc(-c4cc(Cl)cc(Cl)c4)n3)cn2)CC1` (centres unmarked) [Example 60, 4-(4-(5-((6-(3,5-dichlorophenyl)-4-((4-fluoropiperidin-1-yl)methyl)pyridin-2-yl)oxy)pyrimidin-2-yl)piperazin-1-yl)butan-2-ol]: the EC50 in assay [1] is 15.8 nM. The “furin enzyme pIC50” value in assay [2] is on record as 7.6.
For `CC(=O)NCC1CCN(Cc2cc(Oc3cnc(N4CCN(CCC(=O)O)CC4)nc3)nc(-c3cc(Cl)cc(C(F)F)c3)c2)CC1` [Example 61, 3-(4-(5-((4-((4-(acetamidomethyl)piperidin-1-yl)methyl)-6-(3-chloro-5-(difluoromethyl)phenyl)pyridin-2-yl)oxy)pyrimidin-2-yl)piperazin-1-yl)propanoic acid], the EC50 in assay [1] was 158 nM. Besides, the “furin enzyme pIC50” value in assay [2] turned out to be 9.2.
As to `COC(=O)NCC1CCN(Cc2cc(Oc3cnc(N4CCN(C)CC4)nc3)nc(-c3cc(Cl)cc(Cl)c3)c2)CC1` [Example 63, Methyl ((1-1(2-(3,5-dichlorophenyl)-6-((2-(4-methylpiperazin-1-yl)pyrimidin-5-yl)oxy)pyridin-4-yl)methyl)piperidin-4-yl)methyl)carbamate, 4 hydrochloride], the EC50 in assay [1] is 7.94 nM. In addition, the “furin enzyme pIC50” value in assay [2] is 10.8.
As for `CC(=O)NCC1CCN(Cc2cc(Oc3cnc(N4CCN(C)CC4)nc3)nc(-c3cc(Cl)cc(Cl)c3)c2)CC1` [Example 64, N-((1-((2-(3,5-dichlorophenyl)-6-((2-(4-methylpiperazin-1-yl)pyrimidin-5-yl)oxy)pyridin-4-yl)methyl)piperidin-4-yl)methyl)acetamide], the EC50 in assay [1] was 10 nM. Also, the “furin enzyme pIC50” value in assay [2] amounted to 9.1.
`COC(=O)NCC1CCN(Cc2cc(Oc3ccc(N4CCN(C)CC4)nc3)nc(-c3cc(Cl)cc(Cl)c3)c2)CC1` [Example 65, methyl ((1-((2-(3,5-dichlorophenyl)-6-((6-(4-methylpiperazin-1-yl)pyridin-3-yl)oxy)pyridin-4-yl)methyl)piperidin-4-yl)methyl)carbamate]: the EC50 in assay [1] is 20 nM. In assay [2], the “furin enzyme pIC50” value was 8.7.
With `CNC(=O)OCC1CCN(Cc2cc(Oc3cnc(N4CCN(C)CC4)nc3)nc(-c3cc(Cl)cc(Cl)c3)c2)CC1` [Example 66, (1-((2-(3,5-dichlorophenyl)-6-((2-(4-methylpiperazin-1-yl)pyrimidin-5-yl)oxy)pyridin-4-yl)methyl)piperidin-4-yl)methyl methylcarbamate], in assay [1], the EC50 was 7.94 nM. In addition, the IC50 in assay [2] is 1.58 nM.
On to `CNC(=O)OCC1CCN(Cc2cc(Oc3ccc(N4CCN(C)CC4)nc3)nc(-c3cc(Cl)cc(Cl)c3)c2)CC1` [Example 67, (1-((2-(3,5-dichlorophenyl)-6-((6-(4-methylpiperazin-1-yl)pyridin-3-yl)oxy)pyridin-4-yl)methyl)piperidin-4-yl)methyl methylcarbamate], for which the EC50 in assay [1] is 12.6 nM. For the same compound, the “furin enzyme pIC50” value in assay [2] amounted to 10.4.
With `CC(=O)NCC1CCN(Cc2cc(Oc3cnc(N4CCN(C)CC4)nc3)cc(-c3cc(Cl)cc(Cl)c3)c2)CC1` [Example 68, N-((1-((3′,5′-dichloro-5-((2-(4-methylpiperazin-1-yl)pyrimidin-5-yl)oxy)-[1,1′-biphenyl]-3-yl)methyl)piperidin-4-yl)methyl)acetamide], the EC50 in assay [1] is 12.6 nM. The “furin enzyme pIC50” value in assay [2] was 9.6.
In the case of `CNC(=O)NCC1CCN(Cc2cc(Oc3ccc(N4CCN(C)CC4)nc3)nc(-c3cc(Cl)cc(Cl)c3)c2)CC1` [Example 69, 1-((1-((2-(3,5-dichlorophenyl)-6-((6-(4-methylpiperazin-1-yl)pyridin-3-yl)oxy)pyridin-4-yl)methyl)piperidin-4-yl)methyl)-3-methylurea], the EC50 in assay [1] is 5.01 nM. For the same compound, the “furin enzyme pIC50” value in assay [2] was determined as 9.1.
`CNC(=O)NCC1CCN(Cc2cc(Oc3cnc(N4CCN(C)CC4)nc3)nc(-c3cc(Cl)cc(Cl)c3)c2)CC1` [Example 70, 1-((1-((2-(3,5-dichlorophenyl)-6-((2-(4-methylpiperazin-1-yl)pyrimidin-5-yl)oxy)pyridin-4-yl)methyl)piperidin-4-yl)methyl)-3-methylurea]: the EC50 in assay [1] is 3.98 nM. For the same compound, the IC50 in assay [2] is 0.0316 nM.
Take `CC(=O)NCC1CCN(Cc2cc(Oc3cnc(N4CC5CCC(C4)N5C)nc3)nc(-c3cc(Cl)cc(Cl)c3)c2)CC1` [Example 71, N-((1-((2-(3,5-dichlorophenyl)-6-((2-(8-methyl-3,8-diazabicyclo[3.2.1]octan-3-yl)pyrimidin-5-yl)oxy)pyridin-4-yl)methyl)piperidin-4-yl)methyl)acetamide]: the EC50 in assay [1] was 1.58 nM. In assay [2], the IC50 was 0.2 nM.
`CN1CCN(c2ncc(Oc3cc(CN4CCC(Cc5nnn[nH]5)CC4)cc(-c4cc(Cl)cc(Cl)c4)n3)cn2)CC1` [Example 72, 5-((4-((4-((1H-tetrazol-5-yl)methyl)piperidin-1-yl)methyl)-6-(3,5-dichlorophenyl)pyridin-2-yl)oxy)-2-(4-methylpiperazin-1-yl)pyrimidine]: in assay [1], the EC50 is 10 nM. Further, the “furin enzyme pIC50” value in assay [2] is 8.8.
For the compound `CNC(=O)OCC1CCN(Cc2cc(Oc3cnc(N4CCNCC4)nc3)nc(-c3cc(Cl)cc(Cl)c3)c2)CC1` [Example 73, (1-((2-(3,5-Dichlorophenyl)-6-((2-(piperazin-1-yl)pyrimidin-5-yl)oxy)pyridin-4-yl)methyl)piperidin-4-yl)methyl methylcarbamate], in assay [1], the EC50 is 6.31 nM. Further, in assay [2], the “furin enzyme pIC50” value is given as 8.9.
The like results for `CNC(=O)OCC1CCN(Cc2cc(Oc3ccc(N4CCNCC4)nc3)nc(-c3cc(Cl)cc(Cl)c3)c2)CC1` [Example 74, (1-((2-(3,5-Dichlorophenyl)-6-((6-(piperazin-1-yl)pyridin-3-yl)oxy)pyridin-4-yl)methyl)piperidin-4-yl)methyl methylcarbamate, 4 hydrochloride] were, in that order, 6.31 nM and 8.4.
Consider `CNC(=O)NCC1CCN(Cc2cc(Oc3cnc(N4CCNCC4)nc3)nc(-c3cc(Cl)cc(Cl)c3)c2)CC1` [Example 75, 1-((1-((2-(3,5-Dichlorophenyl)-6-((2-(piperazin-1-yl)pyrimidin-5-yl)oxy)pyridin-4-yl)methyl)piperidin-4-yl)methyl)-3-methylurea, 4 hydrochloride], for which, in assay [1], the EC50 was 3.16 nM. For the same compound, in assay [2], the “furin enzyme pIC50” value turned out to be 9.1.
The like results for `COC(=O)NCC1CCN(Cc2cc(Oc3ccc(N4CCNCC4)nc3)nc(-c3cc(Cl)cc(Cl)c3)c2)CC1` [Example 76, Methyl 1(1-((2-(3,5-dichlorophenyl)-6-((6-(piperazin-1-yl)pyridin-3-yl)oxy)pyridin-4-yl)methyl)piperidin-4-yl)methyl)carbamate, 4 hydrochloride] were, in that order, 10 nM and 8.4.
The like results for `CNC(=O)OCC1CCN(Cc2cc(Oc3ccc(N4CCN(CCC(=O)O)CC4)nc3)nc(-c3cc(Cl)cc(Cl)c3)c2)CC1` [Example 77, 3-(4-(5-((6-(3,5-Dichlorophenyl)-4-((4-(((methylcarbamoyl)oxy)methyl)piperidin-1-yl)methyl)pyridin-2-yl)oxy)pyridin-2-yl)piperazin-1-yl)propanoic acid, 4 hydrochloride] were, in that order, 63.1 nM and 9.1.
For the compound `NC(=O)CCN1CCN(Cc2cc(Oc3cnc(N4CCN(CCC(=O)O)CC4)nc3)nc(-c3cc(Cl)cc(Cl)c3)c2)CC1` [Example 78, 3-(4-(5-((4-((4-(3-Amino-3-oxopropyl)piperazin-1-yl)methyl)-6-(3,5-dichlorophenyl)pyridin-2-yl)oxy)pyrimidin-2-yl)piperazin-1-yl)propanoic acid], the EC50 in assay [1] was 63.1 nM. Besides, in assay [2], the “furin enzyme pIC50” value stood at 8.

These data come from US11773078B2, “Furin inhibitors” (Glaxosmithkline Intellectual Property Development Limited, priority 2018, dated 2023).
